According to a melting point compilation (Tetko et al.; mined from patent text by program, amines drawn as free bases though some values may be those of a salt):

| SMILES | melting point |
| --- | --- |
| CC(C)CSc1nc(N)nc2c1ncn2C1C=CC(CO)C1 (centres undefined) | 127 to 129 °C |
| CC1(C)Oc2cc3nonc3cc2[C@@H](NC(=O)Nc2ccccc2)[C@@H]1O (relative stereo) | 215 to 216 °C |
| CC1(C)CCc2ncc([N+](=O)[O-])cc2C1 | 99 to 101 °C |
| O=C1N(c2ccccc2)c2ccccc2C1(Cc1ccncc1)Cc1ccncc1 | 186 to 188 °C |
| COC(=O)c1c(OC)cc2oc(C)cc(=O)c2c1OC | 188 °C |
| Cc1ccccc1Oc1nc(Cl)cc(Cl)n1 | 78 to 79 °C |
| O=C(OCc1ccccc1)c1ncn2c1[C@@H]1CCN1C(=O)c1c(Cl)cccc1-2 | 180 to 182 °C |
| Cc1c(-c2ccc(O)cc2)n(C(=O)c2ccc(OCCN3CCCCC3)cc2)c2ccc(O)cc12 | 127 to 130 °C |
| CC(C)(C#N)c1c(Cl)cc(-n2ncc(=O)[nH]c2=O)cc1Cl | 180 °C |
| O=C(O)C1=Cc2cc(Cl)cc(Br)c2OC1C(F)(F)F (centres undefined) | 228 to 229 °C |
| C=C(c1ccsc1C(=O)O)c1cc(C(C)(C)C)cc2c1CCC2(C)C | 146 to 148 °C |
| Cn1cc(C2=C(c3cn(CO)c4ccccc34)C(=O)NC2=O)c2ccc([N+](=O)[O-])cc21 | 210 to 213 °C |
| COc1ccc(-c2nc(NC(=N)N)sc2-c2ccc(OC)cc2)cc1 | 121 to 130 °C |
| COc1cnn(-c2cc(F)c(C#N)cc2F)c(=O)c1Cl | 182 °C |
| Nc1ccc(CCC(=O)Nc2ccc(C(=O)c3ccccc3)cc2)cc1[N+](=O)[O-] | 72 to 73 °C |
| NC(=O)NC(CS)Cc1ccccc1 (single isomer, unassigned; (+)) | 118 °C |
| CC1(C)CCC(C)(C)c2c(OCc3ccc(F)cc3)cc(C(=O)c3ccc4cc(C(=O)O)ccc4c3)cc21 | 277 °C |
| O=C(Nc1nccs1)c1c([C@@H]2CCCN2)nc2c(C(F)(F)F)cccc2c1O | 196 °C |
| CCOC(=O)C(=O)Nc1cc(NC(=O)NC)ccc1O | 235 to 236 °C |
| O=C1CCC(N2C(=O)c3cccc(OCc4ccc(CN5CCSCC5)cc4)c3C2=O)C(=O)N1 (centres undefined) | 221 to 223 °C |

| SMILES | melting point |
| --- | --- |
| CCCC(C)N1CCC2(CC1)CSC1=C(O2)c2ccccc2C(=O)C1=O (centres undefined) | 109 to 111 °C |
| O=C(O)C(Oc1ccc(Cl)cc1)c1ccc(Oc2ccc(Cl)cc2)cc1 (centres undefined) | 141 to 142 °C |
| C=CCc1cc(C(=O)OC(C)C)ccc1O | 79 to 80 °C |
| C=COCCCCOC(=O)CCCCCCCCCCC(=O)OCCCCOC=C | 42 to 43 °C |
| Cc1ccccc1Nc1cccc(-c2ccccc2)c1CN | 103 to 105 °C |
| CCCCN=C1c2ccccc2CCc2c1nc1c(cnn1CC)c2NCCCC | 124 to 125 °C |
| CN1CCN(c2cccc3ccc(OCc4cccc(Cl)c4)cc23)CC1 | 67.5 to 68 °C |
| CC(C)(C)c1cc(NC(=O)c2cncc3cc(Oc4cc(N)ncn4)ccc23)n(-c2ccc(F)cc2)n1 | 124 to 126 °C |
| O=C(C=Cc1ccc(NC(=O)c2ccc3ccccc3c2)cc1)NO | 231 to 233 °C |
| CC1(C)OC(=O)c2c(O)cccc21 | 128 to 134 °C |
| O=C(O)Cc1ccc(NC(=O)C(COc2cccc(Cl)c2)NS(=O)(=O)c2ccc(F)cc2)cc1 (racemic) | 195 to 197 °C |
| CC1CN(c2c(F)cc3c(=O)c(C(=O)O)cn(C4CC4)c3c2C#N)CCN1 (centres undefined) | > 300 °C |
| CS(=O)(=O)c1ccc(-c2cnn(-c3ccc(C(F)(F)F)cc3)c(=O)c2-c2ccc(F)cc2)cc1 | 171 to 173 °C |
| NS(=O)(=O)c1cc2c(s1)S(=O)(=O)CC=C2 | 210 to 212 °C |
| Cc1ccc(OCC(O)CCCl)cc1 (centres undefined) | 62 to 64 °C |
| Cn1nc(N2c3cccc(F)c3CC2C(=O)N2CCCCCC2)ccc1=O (centres undefined) | 211 to 213 °C |
| COC(=O)CCc1cnoc1-c1ccc(F)cc1F | 40 to 41 °C |
| CCC1(Br)Cc2cc(OCC(=O)O)c(Cl)c(Cl)c2C1=O (centres undefined) | 189 to 191 °C |
| CCOCc1nc2c(N)nc(C)c(C)c2n1N(C)C | 170 to 171 °C |
